Results from patent US6787543B2, “Benzhydryl derivatives” (Fujisawa Pharmaceutical Co., Ltd., priority 2002, dated 2004).

system: emesis in the dog; assay: Emesis in the Dog (apomorphine-induced retching and vomiting); format: in vivo; conditions: adult female dogs; test compound i.v. at 1.0 mg/kg; 5 min later subcutaneous apomorphine (0.1 mg/0.5 ml/kg); observed for 60 min
Procedure: Individually housed adult female dogs (8 to 15 kg) were given an i.v. injection of a solution containing a test compound. 5 Min later the emetic responses (retching and vomiting) were induced by administration of subcutaneous apomorphine (0.1 mg/0.5 ml/kg) and observed for the next 60 min. The timing and number of retches and vomits observed were recorded for each animal. An individual animal was tested with at least 10 days between experiments.

Structure (SMILES) | inhibition rate of emesis
COC(=O)N1CCN2[C@H](CN(Cc3cc(-n4nnnc4C(F)(F)F)ccc3OC)C[C@H]2C(c2ccccc2)c2ccccc2)C1.Cl.Cl [Example 28, (6R,9aR)-6-benzhydryl-8-[2-methoxy-5-[5-(trifluoromethyl)-1H-tetrazol-1-yl]benzyl]octahydropyrazino[1,2-a]pyrazine-2-carboxylic acid methyl ester dihydrochloride] | 90%

system: not given; assay: not given; conditions: not given

Structure (SMILES) | melting point
CCC(=O)N1CCN2[C@H](CN(Cc3cc(-n4nnnc4C(F)(F)F)ccc3OC)C[C@H]2C(c2ccccc2)c2ccccc2)C1.Cl.Cl | 171 to 175 °C
COc1ccc(-n2nnnc2C(F)(F)F)cc1CN1C[C@@H]2CN(C(=O)C(C)C)CCN2[C@H](C(c2ccccc2)c2ccccc2)C1.Cl.Cl | 172 to 175 °C
CCCC(=O)N1CCN2[C@H](CN(Cc3cc(-n4nnnc4C(F)(F)F)ccc3OC)C[C@H]2C(c2ccccc2)c2ccccc2)C1.Cl.Cl | 162 to 166 °C
CCOC(=O)N1CCN2[C@H](CN(Cc3cc(-n4nnnc4C(F)(F)F)ccc3OC)C[C@H]2C(c2ccccc2)c2ccccc2)C1.Cl.Cl | 153 to 156 °C
COc1ccc(-n2nnnc2C(F)(F)F)cc1CN1C[C@@H]2CN(C(=O)OC(C)C)CCN2[C@H](C(c2ccccc2)c2ccccc2)C1.Cl.Cl | 147 to 150 °C
COc1ccc(-n2nnnc2C(F)(F)F)cc1CN1C[C@@H]2CN(C(=O)CC(C)C)CCN2[C@H](C(c2ccccc2)c2ccccc2)C1.Cl.Cl | 138 to 150 °C (dec.)
CCS(=O)(=O)N1CCN2[C@H](CN(Cc3cc(-n4nnnc4C(F)(F)F)ccc3OC)C[C@H]2C(c2ccccc2)c2ccccc2)C1.Cl.Cl | 143 to 146 °C
CCCS(=O)(=O)N1CCN2[C@H](CN(Cc3cc(-n4nnnc4C(F)(F)F)ccc3OC)C[C@H]2C(c2ccccc2)c2ccccc2)C1.Cl.Cl | 146 to 165 °C
COc1ccc(-n2nnnc2C(F)(F)F)cc1CN1C[C@@H]2CN(S(=O)(=O)C(C)C)CCN2[C@H](C(c2ccccc2)c2ccccc2)C1.Cl.Cl | 150 to 155 °C
COc1ccc(-c2ccsc2)cc1CN1C[C@@H]2CN(C(C)=O)CCN2[C@H](C(c2ccccc2)c2ccccc2)C1.Cl.Cl | 177 to 181 °C
COc1ccc(C(F)(F)F)cc1CN1C[C@@H]2CN(C(C)=O)CCN2[C@H](C(c2ccccc2)c2ccccc2)C1.Cl.Cl | 147 to 150 °C
COc1ccc(-c2ccncc2)cc1CN1C[C@@H]2CN(C(C)=O)CCN2[C@H](C(c2ccccc2)c2ccccc2)C1.Cl.Cl.Cl | 210 to 215 °C
CCOc1ccc(-n2nnnc2C(F)(F)F)cc1CN1C[C@@H]2CN(C(C)=O)CCN2[C@H](C(c2ccccc2)c2ccccc2)C1.Cl.Cl | 162 to 165 °C
COc1ccc(-c2ccoc2)cc1CN1C[C@@H]2CN(C(C)=O)CCN2[C@H](C(c2ccccc2)c2ccccc2)C1.Cl.Cl | 173 to 177 °C
COc1ccncc1CN1C[C@@H]2CN(C(C)=O)CCN2[C@H](C(c2ccccc2)c2ccccc2)C1.Cl.Cl.Cl | 205 to 210 °C
CC(=O)N1CCN2[C@H](CN(Cc3cc(-n4nnnc4C(F)(F)F)ccc3OC(C)C)C[C@H]2C(c2ccccc2)c2ccccc2)C1.Cl.Cl | 167 to 171 °C
COc1cc(OC)c(CN2C[C@@H]3CN(C(C)=O)CCN3[C@H](C(c3ccccc3)c3ccccc3)C2)c(OC)c1.Cl.Cl | 170 to 173 °C
